Reference: article PMC11211886 (Frontiers in Pharmacology, 2024)

How the values were obtained:
OATP1B1 = biological target: T1, OATP1B1 (Homo sapiens, UniProt Q9Y6L6); assay: OATP1B1 inhibition, β-estradiol 17-(β-D-glucuronide) uptake in transfected HEK293 cells
T1 sequence (Q9Y6L6 1-691): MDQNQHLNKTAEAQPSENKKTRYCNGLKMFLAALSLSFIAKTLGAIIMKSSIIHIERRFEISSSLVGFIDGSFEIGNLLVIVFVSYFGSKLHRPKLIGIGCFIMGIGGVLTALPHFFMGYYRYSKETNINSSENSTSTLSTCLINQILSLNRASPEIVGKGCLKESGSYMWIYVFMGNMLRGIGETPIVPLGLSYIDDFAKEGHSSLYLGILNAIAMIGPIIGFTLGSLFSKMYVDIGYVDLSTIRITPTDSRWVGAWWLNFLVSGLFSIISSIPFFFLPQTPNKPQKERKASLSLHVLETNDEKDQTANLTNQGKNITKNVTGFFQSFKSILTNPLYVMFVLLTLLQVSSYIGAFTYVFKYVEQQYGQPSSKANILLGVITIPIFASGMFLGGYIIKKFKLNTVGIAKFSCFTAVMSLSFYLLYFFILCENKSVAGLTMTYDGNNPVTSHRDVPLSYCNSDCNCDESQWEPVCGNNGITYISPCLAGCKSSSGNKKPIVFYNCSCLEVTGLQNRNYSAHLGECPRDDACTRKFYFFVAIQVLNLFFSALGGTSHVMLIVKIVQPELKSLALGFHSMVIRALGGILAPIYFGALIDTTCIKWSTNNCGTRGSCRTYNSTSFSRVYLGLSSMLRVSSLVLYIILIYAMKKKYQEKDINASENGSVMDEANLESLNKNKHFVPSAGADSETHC
Procedure: (§1) The pre-incubation solutions were removed, and incubation solutions containing the inhibitors and probe substrates (or transport buffer containing an equal volume of vehicle control and probe substrates) were added and incubated at 37°C for 2 min (5 min for OATP1B3). The probe substrate for OAT1 was 4-aminohippuric acid (10 μM), for OAT3 was estrone 3-sulfate (10 μM), for OCT2 was metformin (100 μM), for OATP1B1 was β-estradiol 17-(β-D-glucuronide) (5 μM), for OATP1B3 was β-estradiol 17-(β-D-glucuronide) (10 μM), and for MATE1 and MATE2-K was tetraethylammonium (10 μM). After incubation, cells were washed three times with ice-cold transport buffer (25 mM HEPES, pH 7.4, pH 8.0 for overexpressing MATE1 and MATE2-K HEK293 cells) and lysed in distilled water. The concentrations of probe substrates were determined by LC-MS/MS, and a BCA Kit (Solarbio ®Life Sciences, Beijing, China) was used to determine the protein content in the cell lysate.
(§2) where C is the concentration of the drug in the cell lysate (nM), P is the protein concentration of the cell lysate (mg/mL), and T is the incubation time (minute). Uptake ratetest compound is the uptake rate of the substrate in the presence of the test compound. Uptake ratevehicle control is the uptake rate of the substrate in the presence of the vehicle control. Uptake ratepassive is the uptake rate of the substrate in the presence of the positive inhibitor at the top test concentration.

OATP1B3 = biological target: T2, OATP1B3 (Homo sapiens, UniProt Q9NPD5); assay: OATP1B3 inhibition, β-estradiol 17-(β-D-glucuronide) uptake in transfected HEK293 cells
T2 sequence (Q9NPD5 1-702): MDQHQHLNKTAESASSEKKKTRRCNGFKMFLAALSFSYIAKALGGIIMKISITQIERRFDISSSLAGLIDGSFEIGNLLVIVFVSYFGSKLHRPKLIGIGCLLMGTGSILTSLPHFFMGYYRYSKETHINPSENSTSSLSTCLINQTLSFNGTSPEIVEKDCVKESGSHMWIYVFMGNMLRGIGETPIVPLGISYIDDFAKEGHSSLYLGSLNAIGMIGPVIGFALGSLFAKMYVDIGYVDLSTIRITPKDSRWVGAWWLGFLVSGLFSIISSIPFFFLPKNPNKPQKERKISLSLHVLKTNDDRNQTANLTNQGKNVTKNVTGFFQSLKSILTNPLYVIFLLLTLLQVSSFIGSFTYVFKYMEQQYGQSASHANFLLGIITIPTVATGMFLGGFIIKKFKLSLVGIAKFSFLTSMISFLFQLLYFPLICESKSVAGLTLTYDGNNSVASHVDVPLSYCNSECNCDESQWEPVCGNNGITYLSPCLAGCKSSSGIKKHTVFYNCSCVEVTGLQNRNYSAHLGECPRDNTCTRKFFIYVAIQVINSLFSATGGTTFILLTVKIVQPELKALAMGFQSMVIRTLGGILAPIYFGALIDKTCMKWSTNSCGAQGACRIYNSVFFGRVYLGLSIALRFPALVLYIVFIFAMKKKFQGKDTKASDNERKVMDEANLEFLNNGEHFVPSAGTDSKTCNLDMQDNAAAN
Procedure: as §1, §2

C[C@H](Nc1ncnc(N)c1C#N)c1cc2ncc(Cl)n2nc1-c1ccccc1 [Amdizalisib]
IC50 (OATP1B1): 7.27 µM | Percentage transported (OATP1B1; human, 2 min, 0.3 μM, pH 7.4): 113% | Uptake rate (OATP1B1; human, 2 min, 0.3 μM, pH 7.4): 59.0±1.42 pmol/mg protein/min | Percentage transported (OATP1B1; human, 2 min, 1 μM, pH 7.4): 105% | Uptake rate (OATP1B1; human, 2 min, 1 μM, pH 7.4): 55.1±2.95 pmol/mg protein/min | Percentage transported (OATP1B1; human, 2 min, 3 μM, pH 7.4): 86.5% | Uptake rate (OATP1B1; human, 2 min, 3 μM, pH 7.4): 47.2±3.13 pmol/mg protein/min | Percentage transported (OATP1B1; human, 2 min, 10 μM, pH 7.4): 32.7% | Uptake rate (OATP1B1; human, 2 min, 10 μM, pH 7.4): 19.3±4.10 pmol/mg protein/min | Percentage transported (OATP1B1; human, 2 min, 30 μM, pH 7.4): 8.04% | Percentage transported (OATP1B1; human, 2 min, 100 μM, pH 7.4): -3.17% | Uptake rate (OATP1B1; human, 2 min, 100 μM, pH 7.4): 1.46±0.141 pmol/mg protein/min | calculated R value (OATP1B1) (OATP1B1; human, 2 min, pH 7.4): 3.8 | inhibition at 2 min, 0.3 µM (OATP1B1; human, pH 7.4): -12.5% | inhibition at 2 min, 1 µM (OATP1B1; human, pH 7.4): -4.64% | inhibition at 2 min, 3 µM (OATP1B1; human, pH 7.4): 13.5% | inhibition at 2 min, 10 µM (OATP1B1; human, pH 7.4): 67.3% | inhibition at 2 min, 30 µM (OATP1B1; human, pH 7.4): 92% | inhibition at 2 min, 100 µM (OATP1B1; human, pH 7.4): 103% | IC50 (OATP1B3): 5.03 µM | Percentage transported (OATP1B3; human, 5 min, 0.3 μM, pH 7.4): 94.5% | Uptake rate (OATP1B3; human, 5 min, 0.3 μM, pH 7.4): 62.4±5.58 pmol/mg protein/min | Percentage transported (OATP1B3; human, 5 min, 1 μM, pH 7.4): 89.2% | Uptake rate (OATP1B3; human, 5 min, 1 μM, pH 7.4): 59.1±6.36 pmol/mg protein/min | Percentage transported (OATP1B3; human, 5 min, 3 μM, pH 7.4): 68.1% | Uptake rate (OATP1B3; human, 5 min, 3 μM, pH 7.4): 46.2±10.1 pmol/mg protein/min | Percentage transported (OATP1B3; human, 5 min, 10 μM, pH 7.4): 29.3% | Uptake rate (OATP1B3; human, 5 min, 10 μM, pH 7.4): 22.4±1.00 pmol/mg protein/min | Percentage transported (OATP1B3; human, 5 min, 30 μM, pH 7.4): 3.82% | Uptake rate (OATP1B3; human, 5 min, 30 μM, pH 7.4): 6.76±0.372 pmol/mg protein/min | Percentage transported (OATP1B3; human, 5 min, 100 μM, pH 7.4): -4.02% | Uptake rate (OATP1B3; human, 5 min, 100 μM, pH 7.4): 1.99±0.315 pmol/mg protein/min | calculated R value (OATP1B3) (OATP1B3; human, 5 min, pH 7.4): 5.1 | inhibition at 5 min, 0.3 µM (OATP1B3; human, pH 7.4): 5.47% | inhibition at 5 min, 1 µM (OATP1B3; human, pH 7.4): 10.8% | inhibition at 5 min, 3 µM (OATP1B3; human, pH 7.4): 31.9% | inhibition at 5 min, 10 µM (OATP1B3; human, pH 7.4): 70.7% | inhibition at 5 min, 30 µM (OATP1B3; human, pH 7.4): 96.2% | inhibition at 5 min, 100 µM (OATP1B3; human, pH 7.4): 104%
